Reference: patent US12414972B2 (University of South Florida, priority 2021, dated 2025)

Key:
enteroids = assay: Ethanolamine treatment of enteroids, expression analyses; assay type: cell-based, mouse
Method: Enteroids development and treatments. To develop mouse enteroids, entire small intestine was collected from mice and flushed with pre-cooled Dulbecco's phosphate buffered saline (DPBS). The lengthwise cut-opened ileum was washed with cooled PBS and fragmented into 2 mm small pieces, then transferred to a 50-ml conical flask containing cleaned pre-cooled PBS. Tissue fragments were incubated in the 25 ml of pre-warmed Trypsin (Gibco) on a rocking platform for 15 minutes. After removing the trypsin, tissue pieces were washed with 10 ml pre-cold PBS with 0.1% bovine serum albumin and filtered in a 50 ml conical tube through a 70 μm cell strainer (Falcon). These pieces were then centrifuged at 290×g for 5 min at 4° C., and the intestinal crypt-containing pallets were suspended in the 10 mL cold DMEM: F-12 (Gibco) and centrifuged at 500×g for 10 minutes followed by resuspending in 150 μL IntestiCult Organoid Growth Medium (StemCell) with […] gentamicin (Gibco). The Matrigel Matrix (Corning) was added to the suspension and the mixture of 50 μL was used to form a dome at the center of a prewarmed 24-well culture plate and incubated at 37° C. and 5% CO2 for 30 minutes to allow the Matrigel to set. To maintain the cultures, the IntestiCult Organoid Growth Medium was changed three times/week, and images were captured by from day 1 to 12. […] The organoids were harvested after 2 days of treatment(s) for miRNA, mRNA, and protein analyses. Experiments were repeated three times.
(§1) RNA isolation and gene expression analyses.
(§2) miRNA profiling and expression analyses.

mice gut = assay: Oral administration of ethanolamine in mice; assay type: in vivo
Text: as §1, §2

Caco2 cells = assay: Ethanolamine treatment of Caco2 cells, expression analyses; assay type: cell-based, Human
Text: as §1, §2

Caco-2 cell monolayers = assay: Transepithelial electric resistance (TEER) assay in Caco-2 cell monolayers; assay type: cell-based, Human; details: ethanolamine treatment, up to 8 hrs
Method: Transepithelial electric resistance (TEER) assay in Caco-2 cell monolayers. Human intestinal epithelial Caco-2 cells (American Type Culture Collection) were seeded on apical chamber made of polyester membrane filters with 0.4 μm pore size of 12-well transwell plates (Costar) at a density of 3×10^5/well. The culture medium from both apical and basolateral compartment were changed every two days. The cells were allowed to fully differentiate for 21 days; and fully differentiated cells were challenged with FCM and metabolites for next 8 hours with continuous measuring of TEER values, using an EVOM2 Epithelial Voltometer (WPI) according to the manufacturer's instruction. The blank inert resistance value (the insert with only culture media) was subtracted from the measured resistance value of each sample and final resistance in ohm×cm2 was calculated by multiplying the sample resistance by the area of the membrane.

miR101a-3p promoter = assay: Promoter luciferase assay in Caco-2 cells; assay type: cell-based, Human
Method: Promoter luciferase assay. Caco-2 cells were seeded onto a 96-well plate at a density of 2×10^4 cells/well and transfected with miR101a-3p promoter pMK-RQ (KanR) reporter vector of 4 different nucleotide sequence (−1 to −500, −1 to −1000, −1 to −1500 and −1 to −2000) from its TSS (Transcription start site) and pMK-RQ (control vector using Lipofectamine 3000 transfection kit (Invitrogen). The TSS of miR101a-3p is located at position: chr1 65067704 (genome version hg38) as reported earlier. (Huang et al., 2017). The cells were collected at various time point (0, 1, 3, 5, 7 and 10 hrs) after transfection. The expression level of the firefly luciferase reporter gene was measured using Pierce Firefly Luciferase Glow Assay Kit.

[1] = among top 6 selected metabolites
[2] = oral, 100 mg/kg body weight, one dose, vs non-treated controls

expression of Tjp1 mRNA in the Caco2 cells (Caco2 cells; [1]): most dramatically reduced | expression of miR101a-3p in Caco2 cells (Caco2 cells; ethanolamine treatment): significantly increased | expression (Arid3a) in Caco2 cells (Caco2 cells; ethanolamine treatment vs controls, FIG. 5M): significantly increased | TEER in the monolayers of Caco2 cells (Caco-2 cell monolayers): reduced
SMILES: NCCO [ethanolamine]
expression of Tjp1 mRNA in the enteroids (enteroids; [1]): most dramatically reduced | expression of Arid3a in the enteroids (enteroids; ethanolamine treatment): significantly increased | expression of miR101a-3p in enteroids (enteroids; ethanolamine treatment): significantly increased | expression of miR101a-3p in the colon of mice (mice gut; ethanolamine treatment): significantly increased | expression of miR101a-3p in the ileum of mice (mice gut; ethanolamine treatment): significantly increased | expression of inflammatory markers (IL-1 β, IL-6 and TNF α) in the intestine (ileum) (mice gut; ethanolamine treatment in mice vs controls): significantly increased | expression (Arid3a) in mouse intestine (mice gut; ethanolamine treatment vs controls, FIG. 5N): significantly increased | leaky gut (FITC-dextran assay) (mice gut; oral, 100 mg/kg body weight, one dose, mice): significantly increased | expression of (Tjp1) mRNA in the colon (mice gut; [2]): significantly reduced | expression of (Tjp1) mRNA in the ileum (mice gut; [2]): significantly reduced | expression of (Tjp1) protein in the ileum (mice gut; [2]): significantly reduced | expression of inflammatory markers like IL-1, IL-6, and TNF-α (Caco2 cells; FIG. 12C, Caco2 culture experiments): significantly reduced | miR101a-3p promoter activity (miR101a-3p promoter; vector carrying −1 to 500 bp fragment): no change | miR101a-3p promoter activity (miR101a-3p promoter; vector carrying −1 to 1500 bp fragment): significantly increased | miR101a-3p promoter activity (miR101a-3p promoter; vector carrying −1 to −1000 bp fragment): significantly increased | miR101a-3p promoter luciferase activity (miR101a-3p promoter; vector with −1 to −2000 bp of TSS vs empty vector): increased
